{"source": "ChEMBL document CHEMBL1159315", "about": "“Constituents of the bark and twigs of Artocarpus dadah with cyclooxygenase inhibitory activity” (J Nat Prod, 2002)", "key": {"[1]": {"molecular_target": "T1, Prostaglandin G/H synthase 2 (Homo sapiens, UniProt P35354)", "T1 sequence (P35354 whole entry)": "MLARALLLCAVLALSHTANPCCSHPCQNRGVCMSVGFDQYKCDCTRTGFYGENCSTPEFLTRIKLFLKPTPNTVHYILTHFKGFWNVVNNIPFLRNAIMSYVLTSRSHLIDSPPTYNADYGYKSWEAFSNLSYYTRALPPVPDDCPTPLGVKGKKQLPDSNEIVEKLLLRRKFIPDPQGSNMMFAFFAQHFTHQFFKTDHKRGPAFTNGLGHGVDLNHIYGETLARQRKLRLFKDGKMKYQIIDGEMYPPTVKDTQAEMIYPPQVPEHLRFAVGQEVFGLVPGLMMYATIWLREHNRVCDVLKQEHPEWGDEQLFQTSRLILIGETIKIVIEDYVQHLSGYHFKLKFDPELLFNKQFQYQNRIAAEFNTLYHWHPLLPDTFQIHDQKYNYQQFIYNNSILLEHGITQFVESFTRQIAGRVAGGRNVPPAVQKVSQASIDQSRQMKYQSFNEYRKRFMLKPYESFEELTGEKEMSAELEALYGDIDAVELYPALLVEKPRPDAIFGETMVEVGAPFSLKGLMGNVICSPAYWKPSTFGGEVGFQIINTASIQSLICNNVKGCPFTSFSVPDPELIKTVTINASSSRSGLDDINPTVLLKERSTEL"}, "[2]": {"molecular_target": "Prostaglandin G/H synthase 1 (Homo sapiens, UniProt P23219)", "sequence (P23219 whole entry)": "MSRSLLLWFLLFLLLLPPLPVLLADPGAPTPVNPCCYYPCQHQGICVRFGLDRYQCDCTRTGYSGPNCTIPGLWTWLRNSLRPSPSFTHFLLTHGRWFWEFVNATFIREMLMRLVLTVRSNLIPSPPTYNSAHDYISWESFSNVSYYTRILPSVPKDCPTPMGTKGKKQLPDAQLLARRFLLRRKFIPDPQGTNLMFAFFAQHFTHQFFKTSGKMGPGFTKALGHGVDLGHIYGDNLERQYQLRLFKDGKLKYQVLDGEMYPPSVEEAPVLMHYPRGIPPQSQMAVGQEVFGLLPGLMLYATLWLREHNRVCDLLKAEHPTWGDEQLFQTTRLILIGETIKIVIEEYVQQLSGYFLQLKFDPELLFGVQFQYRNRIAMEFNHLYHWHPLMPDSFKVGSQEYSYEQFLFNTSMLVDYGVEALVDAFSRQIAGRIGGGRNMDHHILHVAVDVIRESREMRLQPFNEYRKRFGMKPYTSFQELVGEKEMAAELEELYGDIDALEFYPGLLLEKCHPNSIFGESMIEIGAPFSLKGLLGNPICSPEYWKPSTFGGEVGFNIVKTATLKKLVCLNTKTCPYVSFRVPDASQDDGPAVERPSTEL"}, "[3]": {"experiment": "Inhibition of DMBA-induced preneoplastic lesions in mouse mammary gland organ culture at 10 ug/mL", "format": "functional"}}, "data": [{"smiles": "CC(C)(O)[C@H](O)Cc1cc(/C=C/c2cc(O)cc(O)c2)ccc1O", "values": [{"measurement": "IC50", "setting": "[1]", "result": 13.9, "unit": "µM"}, {"measurement": "IC50", "setting": "[2]", "result": 0.48, "unit": "µM"}]}, {"smiles": "CC(C)=CCc1cc(/C=C/c2cc(O)cc(O)c2)ccc1O", "values": [{"measurement": "IC50", "setting": "[1]", "result": 9.5, "unit": "µM"}, {"measurement": "IC50", "setting": "[2]", "result": 0.61, "unit": "µM"}, {"measurement": "inhibition at 10 µg/mL", "setting": "[3]", "result": 7.3, "unit": "%"}]}, {"smiles": "CC(C)=CCc1cc(/C=C/c2cc(O)cc(O)c2)c(O)cc1O", "values": [{"measurement": "IC50", "setting": "[1]", "result": 36.7, "unit": "µM"}, {"measurement": "IC50", "setting": "[2]", "result": 4.1, "unit": "µM"}, {"measurement": "inhibition at 10 µg/mL", "setting": "[3]", "result": 0, "unit": "%"}]}, {"smiles": "C[C@@H]1O[C@@H](O[C@H]2Cc3c(O)cc(O)cc3O[C@@H]2c2ccc(O)cc2)[C@H](O)[C@H](O)[C@H]1O", "values": [{"measurement": "IC50", "setting": "[1]", "result": 19.7, "unit": "µM"}, {"measurement": "IC50", "setting": "[2]", "result": 8.3, "unit": "µM"}, {"measurement": "inhibition at 10 µg/mL", "setting": "[3]", "result": 0, "unit": "%"}]}, {"smiles": "Oc1cc(O)c2c(c1)O[C@H](c1ccc(O)c(O)c1)[C@@H](O)C2", "note": "[CIANIDANOL]", "values": [{"measurement": "IC50", "setting": "[2]", "result": 36.7, "unit": "µM"}, {"measurement": "inhibition at 10 µg/mL", "setting": "[3]", "result": 50, "unit": "%"}]}, {"smiles": "COc1cc(C(O)C(COC(=O)/C=C/c2ccc(O)cc2)Oc2c(OC)cc(/C=C/COC(=O)/C=C/c3ccc(O)cc3)cc2OC)ccc1O", "note": "(configuration not stated) [DADAHOL A]", "values": [{"measurement": "IC50", "setting": "[1]", "result": "> 143", "unit": "µM"}, {"measurement": "IC50", "setting": "[2]", "result": "> 143", "unit": "µM"}]}, {"smiles": "COc1cc(C(O)C(COC(=O)/C=C/c2ccc(O)cc2)Oc2ccc(/C=C/COC(=O)/C=C/c3ccc(O)cc3)cc2OC)ccc1O", "note": "(configuration not stated) [DADAHOL B]", "values": [{"measurement": "IC50", "setting": "[1]", "result": "> 150", "unit": "µM"}, {"measurement": "IC50", "setting": "[2]", "result": "> 150", "unit": "µM"}]}, {"smiles": "O=C1c2c(O)cc(O)cc2O[C@H](c2ccc(O)cc2O)[C@H]1O", "note": "[DIHYDROMORIN]", "values": [{"measurement": "IC50", "setting": "[1]", "result": "> 100", "unit": "µM"}, {"measurement": "IC50", "setting": "[2]", "result": 67.1, "unit": "µM"}, {"measurement": "inhibition at 10 µg/mL", "setting": "[3]", "result": 81.5, "unit": "%"}]}, {"smiles": "CC1OC(OC2C(=O)c3c(O)cc(O)cc3OC2c2ccc(O)cc2)C(O)C(O)C1O", "note": "(configuration not stated) [ENGELETIN]", "values": [{"measurement": "IC50", "setting": "[1]", "result": "> 230", "unit": "µM"}, {"measurement": "IC50", "setting": "[2]", "result": "> 230", "unit": "µM"}]}, {"smiles": "Oc1ccc([C@H]2Oc3cc(O)cc(O)c3C[C@H]2O)cc1", "note": "[EPIAFZELECHIN (2R,3R)(-)]", "values": [{"measurement": "IC50", "setting": "[1]", "result": 69.7, "unit": "µM"}, {"measurement": "inhibition at 10 µg/mL", "setting": "[3]", "result": 81.5, "unit": "%"}]}, {"smiles": "C/C(=C/Cc1c(O)ccc(C(=O)/C=C/c2ccc(O)cc2)c1O)COC(=O)/C=C/c1ccc(O)cc1", "note": "[GEMICHALCONE B]", "values": [{"measurement": "IC50", "setting": "[1]", "result": 38.4, "unit": "µM"}, {"measurement": "IC50", "setting": "[2]", "result": 14, "unit": "µM"}, {"measurement": "inhibition at 10 µg/mL", "setting": "[3]", "result": 33.3, "unit": "%"}]}, {"smiles": "C/C(=C\\Cc1c(O)ccc(C(=O)/C=C/c2ccc(O)cc2)c1O)COC(=O)/C=C/c1ccc(O)cc1", "note": "[ISOGEMICHALCONE B]", "values": [{"measurement": "IC50", "setting": "[1]", "result": 15, "unit": "µM"}, {"measurement": "IC50", "setting": "[2]", "result": 11.7, "unit": "µM"}]}, {"smiles": "Oc1cc(O)cc(-c2cc3ccc(O)cc3o2)c1", "note": "[MORACIN M]", "values": [{"measurement": "IC50", "setting": "[1]", "result": 22.3, "unit": "µM"}, {"measurement": "IC50", "setting": "[2]", "result": 0.5, "unit": "µM"}, {"measurement": "inhibition at 10 µg/mL", "setting": "[3]", "result": 33.3, "unit": "%"}]}, {"smiles": "O=c1cc(-c2ccc(O)cc2O)oc2cc(O)cc(O)c12", "note": "[NORARTOCARPETIN]", "values": [{"measurement": "IC50", "setting": "[1]", "result": "> 100", "unit": "µM"}, {"measurement": "IC50", "setting": "[2]", "result": 14, "unit": "µM"}, {"measurement": "inhibition at 10 µg/mL", "setting": "[3]", "result": 85.2, "unit": "%"}]}, {"smiles": "Oc1cc(O)cc(/C=C/c2ccc(O)cc2O)c1", "note": "[OXYRESVERATROL]", "values": [{"measurement": "IC50", "setting": "[1]", "result": 109, "unit": "µM"}, {"measurement": "IC50", "setting": "[2]", "result": 1.4, "unit": "µM"}, {"measurement": "inhibition at 10 µg/mL", "setting": "[3]", "result": 33.3, "unit": "%"}]}, {"smiles": "Oc1ccc(/C=C/c2cc(O)cc(O)c2)cc1", "note": "[RESVERATROL]", "values": [{"measurement": "inhibition at 10 µg/mL", "setting": "[3]", "result": 87.5, "unit": "%"}]}, {"smiles": "O=C1CC(c2ccc(O)cc2O)Oc2cc(O)cc(O)c21", "note": "(configuration not stated) [STEPPOGENIN]", "values": [{"measurement": "IC50", "setting": "[1]", "result": 46.4, "unit": "µM"}, {"measurement": "IC50", "setting": "[2]", "result": 5.9, "unit": "µM"}, {"measurement": "inhibition at 10 µg/mL", "setting": "[3]", "result": 66.7, "unit": "%"}]}]}
